In US6476032B2, “2,3,4,4a-tetrahydro-1H-pyrazino[1,2-a]quinoxalin-5(6H)one derivatives” (Wyeth, priority 1998, dated 2002):
Structures can show the parent of a compound that is named as a salt. Where two headings read alike, the source gives them in different places.

Tests used:
human 5-HT2C receptor = molecular target: T1, human 5-HT2C receptor (Homo sapiens, UniProt P28335); assay: Stimulation of [3H] Inositol Monophosphate Production by 5HT2C Agonists; format: cell-based
T1 construct: expressed in transfected cells; host or cells: CHO cells
T1 sequence (P28335 33-458): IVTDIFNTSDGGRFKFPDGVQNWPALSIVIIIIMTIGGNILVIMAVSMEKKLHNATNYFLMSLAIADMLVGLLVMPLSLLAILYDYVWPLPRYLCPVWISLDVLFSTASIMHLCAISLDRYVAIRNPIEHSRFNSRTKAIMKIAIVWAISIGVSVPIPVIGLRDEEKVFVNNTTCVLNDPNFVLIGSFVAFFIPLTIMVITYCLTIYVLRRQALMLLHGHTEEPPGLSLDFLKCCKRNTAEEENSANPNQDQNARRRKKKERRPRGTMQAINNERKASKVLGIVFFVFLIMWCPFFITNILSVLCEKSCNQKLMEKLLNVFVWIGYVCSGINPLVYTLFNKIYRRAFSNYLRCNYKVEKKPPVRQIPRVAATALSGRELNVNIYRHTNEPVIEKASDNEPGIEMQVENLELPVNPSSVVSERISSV
Procedure: One (1) ml of maintenance medium containing 1 μCi/ml myo-[^3H] inositol was added to each well. After 48 hours labeling, the cells were washed once with 0.5 ml DMEM containing 25 mM HEPES and 10 mM LiCl, then preincubated with the medium for 30 min (antagonists were included in this period if tested). At the end of the preincubation, the medium was removed, the cells were then incubated with test compounds (in presence of antagonists if needed) for 30 min. The reaction was terminated by removal of the incubation solution and addition of 0.5 ml ice-cold 5% PCA, followed by 15 to 30 min incubation on ice. 200 μl of 0.5 M Tes/1.5 M K2CO3 was added to each well to neutralize to pH 7, and plates were left on ice for another 15 to 30 min to precipitate all salts. The liquid and solid phases were separated by centrifugation.
A portion (350 μl) of the upper aqueous phase was applied to Dowex AG-1X8 (formate form, 100-200 mesh) columns. The columns were then washed stepwise with 10 ml of water and 10 ml of 25 mM ammonium formate to remove free myo-[^3H]inositol and deacylated phosphoinositol, respectively. Finally 10 ml of 0.2 M ammonium formate solution was applied to the columns to elute [^3H] inositol monophosphate ([^3H] IP1) directly into scintillation vials. Of this eluate, 1 ml was used to determine radioactivity by scintillation counting.
A 3-parameter logistic function is used to generate estimate of EC50/IC50.

[1] = molecular target: T2, human 5-hydroxy-tryptamine2C (h5HT2C) receptor (Homo sapiens, UniProt P28335); assay: 5HT2C Receptor Binding Test Procedure ([125I] DOI)
T2 construct: expressed in transfected cells; host or cells: CHO (Chinese Hamster Ovary) cells; membranes
T2 sequence (P28335 33-458): T1 sequence (P28335 33-458)

[2] = system: food intake in male Sprague-Dawley rats; assay: Effects of Compounds on Feeding Behavior in Rats (food intake, 24 hr fast); format: in vivo; details: Rattus norvegicus, dose giving 50% reduction in food intake
Procedure: Effects of Compounds on Feeding Behavior in Rats
Eight (8) male Sprague-Dawley rats weighing 150-180 g were separated into individual cages and acclimated to a powdered diet for 2 weeks. During this period and throughout the test procedure, the food cup and the animals were weighed daily. Following the acclimation period, animals were fasted for 24 hours and then injected with either vehicle or one of 4 doses of the test compound. Food intake was assessed at 2 and 24 hours following compound administration. Compounds to be evaluated were injected 1-2× per week until all animals had received all doses of the test compound. The order of doses were chosen using to a modified Latin Square design. Additional studies may be conducted in satiated rats at the start of the dark cycle. Compounds were injected i.p, s.c. or p.o. At the end of the study effects of the test compound on food intake was evaluated using a repeated measures ANOVA. Data were collected were 2 hour food intake (g). Data were subjected to one-way ANOVA with posthoc t-tests to assess group differences. Where appropriate, ED50 values were calculated.

[3] = CHO cells expressing human 5-HT2C, read-out: Stimulation of IP3 (EC50)
[4] = read-out: 5HT2C % Emax (5HT, 100%)
[5] = read-out: 5HT2C Affinity DOI/Agonist binding (Ki), [125I] DOI agonist binding

Row | SMILES | EC50 (human 5-HT2C receptor; [3]) [nM] | Emax (human 5-HT2C receptor; [4]) [%] | Ki [1] [nM] | Ki [1, 5] [nM] | further results
1 | O=C1Nc2cc(C(F)(F)F)c(Cl)cc2N2CCNCC12 (centres unmarked) [Example 7, 9-Chloro-8-Trifluoromethyl-2,3 4,4a-Tetrahydro-1H-Pyrazino[1,2-a]-Quinoxalin-5(6H)-One, Hydrochloride] | 97.3 | 100 | 8 |  | 
2 | O=C1Nc2ccc(Cl)c(Cl)c2N2CCNCC12 (centres unmarked) [Example 10, 9,10-Dichloro-2,3.4,4a-Tetrahydro-1H-Pyrazino[1,2-a]-Quinoxalin-5(6H)-One, Hydrochloride] |  |  | 1040 |  | 
3 | O=C1Nc2cc(F)c(F)cc2N2CCNCC12 (centres unmarked) [Example 13, 8,9-Difluoro-2,3,4,4a-Tetrahydro-1H-Pyrazino[1,2-a]Quinoxalin-5(6H)-One] |  |  |  | 91 | 
4 | COc1cc(CC(C)N)c(OC)cc1I (centres unmarked) [[^125I] DOI, reference compound] |  |  |  |  | Kd ([1]; read-out: dissociation constant, KD of [125I] DOI at the human serotonin 5HT2C receptor, saturation binding with increasing concentrations of [125I] DOI): 0.4 nM
5 | CSc1ccc2c(c1)C(N1CCN(C)CC1)Cc1ccccc1S2 (centres unmarked) [Methiothepin, reference compound] |  |  |  |  | Ki ([1]; reference compounds, [125I] DOI binding, CHO cell membranes, read-out: Ki value and 95% confidence interval): 4.6 nM
6 | O=C1Nc2cc(Cl)c(Cl)cc2N2CCNC[C@H]12 [Example 2, (R)-8,9-Dichloro-2,3,4,4a-Tetrahydro-1H-Pyrazino[1,2-a]Quinoxalin-5(6H)-One] | 7.92 | 112 | 4.18 |  | ED50 ([2]; ip): 1.99 mg/kg
7 | O=C1Nc2cc(Cl)c(Cl)cc2N2CCNC[C@@H]12 [Example 3, (S)-8,9-Dichloro-2,3,4,4a-Tetrahydro-1H-Pyrazino[1,2-a]Quinoxalin-5(6H)-One] | 290 | 89 |  | 66.4 | 
8 | O=C1Nc2ccc(Cl)cc2N2CCNC[C@H]12 [Example 12, (R)-9-Chloro-2,3,4,4a-Tetrahydro-1H-Pyrazino[1,2a]Quinoxalin-5(6H)-One] |  | 95 | 9 |  | EC50 (human 5-HT2C receptor): 30 nM
9 | Clc1cc2c(cc1Cl)N1CCNCC1CN2 (centres unmarked) [Example 4, 8,9-Dichloro-2,3,4,4a,5,6-Hexahydro-1H-Pyrazino[1,2-a]Quinoxaline, dihydrochloride] |  | 99 |  | 1 | EC50 (human 5-HT2C receptor): 7.32 nM
10 | O=C1Nc2cc(Cl)c(Cl)cc2N2CCNCC12 (centres unmarked) [Example 1, 8,9-Dichloro-2,3,4,4a-Tetrahydro-1H-Pyrazino[1,2-a]Quinoxalin-5(6H)-One] | 12 | 108 | 4.33 |  | ED50 ([2]; ip): 1.91 mg/kg; ED50 ([2]; po): 9.73 mg/kg
11 | O=C1Nc2ccc(Cl)cc2N2CCNC[C@H]12 (as salt: hydrochloride) [Example 12, (R)-9-Chloro-2,3,4,4a-Tetrahydro-1H-Pyrazino[1,2a]Quinoxalin-5(6H)-One] |  |  |  |  | melting point: 146 to 149 °C
12 | Clc1cc2c(cc1Cl)N1CCNC[C@@H]1CN2 (single isomer, unassigned) [Example 5, dihydrochloride] |  | 100 | 7 |  | EC50 (human 5-HT2C receptor): 33.8 nM
13 | O=C1Nc2cc(C(F)(F)F)c(Cl)cc2N2CCNC[C@H]12 [Example 9, (R)-9-Chloro-8-Trifluoromethyl-2,3,4,4a-Tetrahydro-1H-Pyrazino[1,2-a]-Quinoxalin-5(6H)-One, Hydrochloride] | 18.8 | 100 |  | 25 | 
14 | Clc1cc2c(cc1Cl)N1CCNC[C@H]1CN2 (single isomer, unassigned) [Example 6, dihydrochloride] |  | 77 | 8 |  | EC50 (human 5-HT2C receptor): 23.2 nM
15 | Cl.O=C1Nc2c(Cl)cc(Cl)cc2N2CCNCC12 (centres unmarked) [Example 11, 7,9-Dichloro-2,3,4,4A-Tetrahydro-1H-Pyrazino[1,2-a]Quinoxalin-5(6H)-One, Hydrochloride] |  |  |  | 19.8 | Emax (human 5-HT2C receptor; read-out: 5HT2C % Emax (5HT, 100%) at single concentration): 73%; ED50 ([2]; ip): 9.99 mg/kg
16 | O=C1Nc2cc(C(F)(F)F)c(Cl)cc2N2CCNC[C@@H]12 [Example 8, (S)-9-Chloro-8-Trifluoromethyl-2,3,4,4a-Tetrahydro-1H-Pyrazino[1,2-a]-Quinoxalin-5(6H)-One. Hydrochloride] | 2610 | 85 |  | 516 | 
